Measured values reported in patent USRE42890E1, “Furazanobenzimidazoles” (Basilea Pharmaceutica AG, priority 2003, dated 2011).
Where two headings read alike, the source gives them in different places.

Columns and labels:
[1] = system: HT1080; assay: MTS proliferation assay, HT1080; format: cell-based, human; settings: HT1080, 72 h incubation, read-out: MTS proliferation assay IC 50 HT1080
Summary of the method: (§1)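 Cells seeded 24 h before treatment in RPMI-1640 with 5% or 10% FCS. Compounds added at 10, 3, 1 and 0.3 μM final and incubated 72 h at 37 °C, 7.5% CO2. MTS reagent then added for 3 h, absorbance read at 492 nm.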

[2] = system: HeLa; assay: MTS proliferation assay, HeLa; format: cell-based, human; settings: 72 h incubation, read-out: MTS proliferation assay IC 50 HeLa
Summary of the method: as §1

[3] = system: adherent cells or suspension cells; assay: Hoechst 33342 nuclear staining (fraction of apoptotic nuclei); format: cell-based; set-up: key: 0 relating to no activity; 1 relating to weak activity comprising less than 70% of the cells; score 2 relating to strong activity comprising more than 70% of the cells
[4] = system: Jily; assay: MTS proliferation assay, Jily; format: cell-based; settings: 72 h incubation, read-out: MTS proliferation assay IC 50 Jily
Summary of the method: (§2)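 Cells seeded 24 h before treatment in RPMI-1640 with 5% or 10% FCS, then exposed 72 h at 37 °C, 7.5% CO2, to compound at final 10, 3, 1 and 0.3 μM. Viability by MTS, 3 h further incubation, absorbance 492 nm.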

[5] = system: MRC5; assay: MTS proliferation assay, MRC5; format: cell-based; settings: MRC5, 72 h incubation, read-out: MTS proliferation assay IC 50 MRC5
Summary of the method: as §2

[6] = system: Jurkat; assay: MTS proliferation assay, Jurkat; format: cell-based, human; settings: 72 h incubation, read-out: MTS proliferation assay IC 50 Jurkat
Summary of the method: as §1

[7] = system: HeLa; assay: PI staining for cell cycle distribution, HeLa; format: cell-based, human; set-up: key: 0: no effect; 1: weak effect; 2: strong effect; settings: HeLa 10 μM, 24 h; for PI staining for cell cycle distribution, G2M: cell population arrested in G2M phase; for PI staining for cell cycle distribution, subG1: subG1 peak indicative for DNA fragmentation
Experimental: (§3) Cell lines are cultured in RPMI-1640 tissue culture medium containing either 5% or 10% fetal calf serum, 0.05 mM 2-mercaptoethanol, 2 mM glutamine and penicillin/streptomycin 50 μg/ml (complete medium) (Sigma, Buchs, Switzerland). General growth conditions are 37° C. and 7.5% CO2.
(§4) The following human cell lines (either EGFP transfected or not) are being used: HeLa (ATCC: CCL-2), KB (ATCC: CCL-17), MCF7 (ATCC: HTB-22), SK-BR-3 (ATCC: HTB-30), SK-Mel 1 (ATCC: HTB-67), SK-Mel 28 (ATCC: HTB-72), PC-3 (ATCC: CRL-1435), SW 480 (ATCC: CCL-228), NCl-H460 (ATCC: HTB-177), NCl-H1792 (ATCC: CRL-5895), HT1080 (ATCC: CCL-21), Jurkat (ATCC: TIB-152), Ramos (ATCC: CRL-1596), Raji (ATCC: CCL-86), H9 (ATCC: HTB-176), Hut78 (ATCC: TIB-161), K562 (ATCC: CCL 243), HL-60 (ATCC: CCL 240), U-87MG (ATCC: HTB-14), HepG2 (ATCC: HB-8065), U-2 OS (ATCC: HTB-96), Saos-2 (ATCC: HTB-85), U937 (ATCC: CRL 1593), Hs 578T (ATCC: HTB 126), HBL-100 (ATCC: HTB 124), Molt-4 (ATCC: CRL 1582).
(§5) 1-2*10^5 cells are seeded into 24 well tissue culture plates and incubated for 24 h prior to compound addition. Compounds are added for 24 h in a final concentration of 3 μM or 10 μM. Adherent cells are harvested by trypsinization. The cell suspensions are fixed by adding 2 parts ice cold ethanol 100% while vortexing. Then the samples are stored for >2 h at −20° C. Subsequently the cells are washed with PBS once and resuspended in 250 μl PBS containing 50 μg/ml PI (Calbiochem # 537059), then the samples are incubated at 37° C. for 30 minutes and subsequently analyzed on a FACSCalibur™ monitoring linear PI fluorescence activity on FL2. The readout allows the detection of a possible direct or indirect influence of the tested compounds on the cell cycle. The following events can occur: a) Generation of a subG1 peak indicative for DNA fragmentation, b) increase of the cell population arrested in G2M phase. Both events are scored by 1 for weak and 2 for strong occurrence. 0 indicates no occurrence at all.

[8] = system: Jurkat; assay: PI staining for cell cycle distribution, Jurkat; format: cell-based, human; set-up: key: 0: no effect; 1: weak effect; 2: strong effect; settings: Jurkat 3 μM, 24 h; for PI staining for cell cycle distribution, G2M: cell population arrested in G2M phase; for PI staining for cell cycle distribution, subG1: subG1 peak indicative for DNA fragmentation
Experimental: as §3, §4, §5

SMILES	Hoechst 33342 nuclear staining score ([3]; H460, conc 0.01 μm)	Hoechst 33342 nuclear staining score ([3]; H460, conc 0.1 μm)	Hoechst 33342 nuclear staining score ([3]; H460, conc 1 μm)	Hoechst 33342 nuclear staining score ([3]; HeLa, conc 0.01 μm)	Hoechst 33342 nuclear staining score ([3]; HeLa, conc 0.1 μm)	Hoechst 33342 nuclear staining score ([3]; HeLa, conc 1 μm)	Hoechst 33342 nuclear staining score ([3]; Jily, conc 0.01 μm)	Hoechst 33342 nuclear staining score ([3]; Jily, conc 0.1 μm)	Hoechst 33342 nuclear staining score ([3]; Jily, conc 1 μm)	Hoechst 33342 nuclear staining score ([3]; Jurkat, conc 0.01 μm)	Hoechst 33342 nuclear staining score ([3]; Jurkat, conc 0.1 μm)	Hoechst 33342 nuclear staining score ([3]; Jurkat, conc 1 μm)	Hoechst 33342 nuclear staining score ([3]; MRC5, conc 0.01 μm)	Hoechst 33342 nuclear staining score ([3]; MRC5, conc 0.1 μm)	Hoechst 33342 nuclear staining score ([3]; MRC5, conc 1 μm)	Hoechst 33342 nuclear staining score ([3]; PBLs, conc 0.01 μm)	Hoechst 33342 nuclear staining score ([3]; PBLs, conc 0.1 μm)	Hoechst 33342 nuclear staining score ([3]; PBLs, conc 1 μm)	IC50 [4]	IC50 [1]	further results
Nc1nonc1-c1nc2ccccc2n1CC(=O)c1ccc(Cl)c([N+](=O)[O-])c1 [Example 66, 4-[1-(4-Chloro-3-nitrophenacyl)-1H-benzimidazol-2-yl]-furazan-3-ylamine]	0	0	2 (score 2 relating to strong activity comprising more than 70% of the cells)	0	0	2 (score 2 relating to strong activity comprising more than 70% of the cells)	0	0	2 (score 2 relating to strong activity comprising more than 70% of the cells)	0	1 (1 relating to weak activity comprising less than 70% of the cells)	2 (score 2 relating to strong activity comprising more than 70% of the cells)	0	0	1 (1 relating to weak activity comprising less than 70% of the cells)	0	0	0	100 to 1000 nM	–	IC50 ([1]; Homo sapiens, HT-1080): 100 to 1000 nM; IC50 ([2]; Homo sapiens): 100 to 1000 nM; IC50 ([5]; Homo sapiens): 100 to 1000 nM; melting point: 198 to 200 °C; IC50 ([6]; Homo sapiens): 10 to 100 nM
Nc1nonc1-c1nc2ccccc2n1CC(=O)c1ccc(Cl)cc1 [Example 16]	0	2 (score 2 relating to strong activity comprising more than 70% of the cells)	2 (score 2 relating to strong activity comprising more than 70% of the cells)	0	2 (score 2 relating to strong activity comprising more than 70% of the cells)	2 (score 2 relating to strong activity comprising more than 70% of the cells)	0	2 (score 2 relating to strong activity comprising more than 70% of the cells)	2 (score 2 relating to strong activity comprising more than 70% of the cells)	0	2 (score 2 relating to strong activity comprising more than 70% of the cells)	2 (score 2 relating to strong activity comprising more than 70% of the cells)	0	2 (score 2 relating to strong activity comprising more than 70% of the cells)	2 (score 2 relating to strong activity comprising more than 70% of the cells)	0	0	0	10 to 100 nM	10 to 100 nM	PI staining for cell cycle distribution, G2M [7]: 2; PI staining for cell cycle distribution, subG1 [7]: 0; IC50 [2]: 100 to 1000 nM; PI staining for cell cycle distribution, G2M [8]: 0; PI staining for cell cycle distribution, subG1 [8]: 0; IC50 [5]: 10 to 100 nM; IC50 [6]: 100 to 1000 nM
N#CCCNc1nonc1-c1nc2ccccc2n1CC(=O)c1ccc(N)cc1 [Example 58]	2 (score 2 relating to strong activity comprising more than 70% of the cells)	2 (score 2 relating to strong activity comprising more than 70% of the cells)	2 (score 2 relating to strong activity comprising more than 70% of the cells)	2 (score 2 relating to strong activity comprising more than 70% of the cells)	2 (score 2 relating to strong activity comprising more than 70% of the cells)	2 (score 2 relating to strong activity comprising more than 70% of the cells)	2 (score 2 relating to strong activity comprising more than 70% of the cells)	2 (score 2 relating to strong activity comprising more than 70% of the cells)	2 (score 2 relating to strong activity comprising more than 70% of the cells)	2 (score 2 relating to strong activity comprising more than 70% of the cells)	2 (score 2 relating to strong activity comprising more than 70% of the cells)	2 (score 2 relating to strong activity comprising more than 70% of the cells)	1 (1 relating to weak activity comprising less than 70% of the cells)	2 (score 2 relating to strong activity comprising more than 70% of the cells)	2 (score 2 relating to strong activity comprising more than 70% of the cells)	0	0	0	< 10 nM	< 10 nM	PI staining for cell cycle distribution, G2M [7]: 2; PI staining for cell cycle distribution, subG1 [7]: 0; IC50 [2]: 10 to 100 nM; PI staining for cell cycle distribution, G2M [8]: 0; PI staining for cell cycle distribution, subG1 [8]: 0; IC50 [5]: < 10 nM; IC50 [6]: < 10 nM
